Source: patent US20250368958A1, “CAR-EXPRESSING PLURIPOTENT STEM CELL-DERIVED NEUTROPHILS LOADED WITH DRUG NANOPARTICLES AND USES THEREOF” (Purdue Research Foundation, priority 2022, published 2025)

Tests used:
[1] = tested on: tumor-neutrophil co-culture; test: Tumor lysis with phagocytosis or ROS inhibitor; assay type: cell-based
Procedure: FIG. 16A is a volcano map of bulk RNA-Seq analysis of U87MG cells under indicated treatments. FIGS. 16B and 16C show tumor lysis measurements of the indicated groups treated with 5 μM cytochalasin D (CytoD) or 5 mM N-acetylcysteine (NAC), respectively.
RNA sequencing (RNA-seq) analysis on tumor cells was performed to elucidate potential molecular mechanism underlying enhanced anti-tumor cytolysis of neutrophils by CAR expression and R—SiO2-TPZ NP. […] To further understand enhanced anti-tumor activities of R—SiO2-TPZ-loaded CAR-neutrophils, a phagocytosis inhibitor cytochalasin D and a reactive oxygen species (ROS) inhibitor N-acetyl-cysteine (NAC) were applied to the tumor-neutrophil co-culture.

[2] = tested on: U87MG tumor spheroids; test: 3D tumor spheroid model; assay type: cell-based, human; conditions: drug delivered by CAR-neutrophils@R—SiO2 NPs
Procedure: A three-dimensional (3D) tumor spheroid model was then employed to evaluate the tumor-penetration ability of R—SiO2-TPZ NP-loaded CAR-neutrophils (FIG. 6G). 3D tumor spheroids were generated by the hanging-drop method. Briefly, U87MG cells were suspended in minimum essential medium (MEM) medium with 10% FBS and 0.3% methylcellulose at 2×10^6 cells/mL and deposited onto an inverted lid of 96-well plate as an individual drop using a 20 μL pipettor. The cover lid was then placed back onto the PBS-filled bottom chamber, and the whole plate was incubated at 37° C. and 5% CO2. The hanging drops were monitored daily until cell aggregates were formed in 5-7 days. Each cell aggregate was transferred to a single well of a 24-well plate for subsequent experiments.
To assess the tumor penetration capability of CLTX-CAR neutrophils, 2×10^5 neutrophils/well were added to the wells of 24-well plate and incubated with tumor spheroids. After co-incubation for 24 hours, tumor spheroids were fixed and stained for CD45 and DAPI. For cytotoxicity analysis, both live/dead cell staining and the CytoTox-Glo™ Cytotoxicity Assay kit (Promega Corporation, Madison, WI) were employed. The CytoTox-Glo™ Cytotoxicity Assay was quantified by the SpectraMax iD3 microplate reader (Molecular Devices, Sunnyvale, CA).

Structure (SMILES): C=C1[C@@H](C)[C@H]2[C@H](Cc3ccccc3)NC(=O)[C@]23[C@H](OC(C)=O)/C=C/[C@@](C)(O)C(=O)[C@@H](C)C/C=C/[C@H]3[C@@H]1O [cytochalasin D]
- cytolysis of tumor cells by CAR-neutrophils in presence of inhibitor ([1]; 5 μM): significantly reduced

Structure (SMILES): Nc1nc2cc(CC[C@H]3C[C@@H](n4ccc5c(N)ncnc54)[C@H](O)[C@@H]3O)ccc2cc1Br [JNJ64619187]
- killing of GBM cells in 3D tumor models [2]: efficiently kill GBM cells

Structure (SMILES): CC(=O)N[C@@H](CS)C(=O)O [NAC, N-acetyl-cysteine]
- cytolysis of tumor cells by CAR-neutrophils in presence of inhibitor ([1]; 5 mM): significantly reduced
